Results reported in patent US8221975B2, “Method for detection of microorganism” (Morinaga Milk Industry Co., Ltd., priority 2007, dated 2012).

What was measured:
[1] = test system: Enterobacter sakazakii ATCC 6538P; assay: MMS real-time PCR (79 bp) of EMA-treated Enterobacter sakazakii, Ct value; format: cell-based
Protocol: In the case where the real-time PCR is employed, changes in fluorescent intensities are generally noise levels and about zero if the number of amplification cycles is in the range of 1 to 10. Therefore, the intensities are regarded as sample blanks containing no amplification products. The standard deviation (SD) of the changes is calculated, and a value obtained by multiplying the SD value by 10 is defined as a threshold value. The number of PCR cycles in which a value larger than the threshold value is achieved for the first time referred to as “cycle threshold value (Ct value)”. Therefore, the larger the initial amount of a DNA template in a PCR reaction solution, the smaller the Ct value, while the smaller the amount of the template DNA, the larger the Ct value. Even if the amounts of the template DNA are the same, the higher the proportion of the template where a target region of PCR has been cleaved, the larger the Ct value in PCR reactions for the region.
A Gram-negative bacterium, Enterobacter sakazakii (Enterobacter sakazakii ATCC 6538P; hereinafter, abbreviated as “sakazakii” in some cases), was cultured in brain-heart infusion (BHI) broth at 37° C., and 5 ml of the culture medium in the logarithmic growth phase was centrifuged at 8,000×g for 15 minutes at 4° C., followed by removal of the supernatant. 5 ml of physiological saline was added to the bacterial cells, and the whole was vigorously stirred and diluted 10-fold. Thus, a live cell suspension was prepared. The number of the live cells in the live cell suspension was determined in a standard agar plate medium and found to be 8.38±0.25 log10 cfu/ml.
The live cell suspension (1 ml) was placed in a 1.5-ml microtube, and the microtube was immersed in boiling water for 2 minutes and immediately cooled with ice water, to thereby prepare a injured cell suspension. The cells in the suspension probably include small numbers of live cells and dead cells but include mainly injured cells. Therefore, the cells are simply referred to as “injured cells”. Note that the method of the present invention is originally intended to detect live cells, and microorganism cells distinguished from live cells may be injured cells or dead cells.
Ethidium monoazide (EMA) was added to the live cell suspension and injured cell suspension of sakazakii prepared above at a final concentration of 0, 10, 25, or 100 μg/ml, and the suspensions were allowed to stand under shading at 4° C. for 10 minutes. The suspensions were placed on ice and irradiated for 5 minutes with a 500-W visible light (FLOOD PRF: 100 V, 500 W, IWASAKI ELECTRIC CO., LTD., wavelength: 500 to 700 nm) at a distance of 20 cm from the suspensions. Then, the suspensions were centrifuged at 15,000×g for 10 minutes at 4° C., and the supernatants were removed. An equal volume of physiological saline was added thereto, and the suspensions were stirred and centrifuged while cooling at 15,000×g for 10 minutes at 4° C., followed by removal of the supernatants. An equal volume of brain-heart infusion (BHI) broth was added thereto, and the suspensions were incubated at 37° C. for 2 hours.
In the […] EMA treatment, EMA was not added again to the live cell and injured cell suspensions having an EMA concentration of 0, […] The suspensions were allowed to stand under shading at 4° C. for 10 minutes, placed on ice, and irradiated for 5 minutes with a 500-W visible light at a distance of 20 cm from the suspensions.
Ethidium monoazide (EMA) was added to the live cell and injured cell suspensions of sakazakii prepared in the section “1.” at a final concentration of 0, 10, 25 or 100 μg/ml, and the suspensions were allowed to stand under shading at 4° C. for 10 minutes, placed on ice, and irradiated for 5 minutes with a 500-W visible light (FLOOD PRF: 100V, 500 W, IWASAKI ELECTRIC CO., LTD., wavelength: 500 to 700 nm) at a distance of 20 cm from the suspensions. […]

[2] = test system: Listeria monocytogenes JCM 2873; assay: hlyA-PCR of EMA-treated Listeria (live and injured cells), band intensity of final amplified product on agarose gel; format: cell-based; details: for bands of hlyA gene amplified products (electrophoresis, FIG. 1): multi-step treatment (EMA 100 μg/ml-incubation-EMA 25 or 10 μg/ml); for bands estimated as hlyA gene amplified products (electrophoresis, FIG. 1): single-step treatment, live cells and injured cells
[3] = single-step EMA 10 μg/ml, Injured cell
[4] = single-step EMA 10 μg/ml, Live cell
[5] = single-step EMA 25 μg/ml, Injured cell
[6] = single-step EMA 25 μg/ml, Live cell
[7] = single-step EMA 100 μg/ml, Injured cell

CC[n+]1c(-c2ccccc2)c2cc(N=[N+]=[N-])ccc2c2ccc(N)cc21 [EMA, ethidium monoazide]
Ct value (mean ± SD, N = 2) [1, 3]: 27.6 ± 0.1 | number of times of positive reaction in two PCR assays (i/2) [1, 3]: (2/2) | Ct value (mean ± SD, N = 2) [1, 4]: 20.8 ± 0.9 | Ct value (mean ± SD, N = 2) [1, 5]: 27.3 ± 1.0 | number of times of positive reaction in two PCR assays (i/2) [1, 5]: (2/2) | Ct value (mean ± SD, N = 2) [1, 6]: 19.9 ± 1.3 | Ct value (mean ± SD, N = 2) [1, 7]: 25.2 ± 0.5 | number of times of positive reaction in two PCR assays (i/2) [1, 7]: (2/2) | Ct value (mean ± SD, N = 2) ([1]; single-step EMA 100 μg/ml, Live cell): 22.2 ± 1.0 | Ct value (mean ± SD, N = 2) ([1]; two-step EMA 10/10 μg/ml, Live cell): 17.1 ± 1.8 | Ct value (mean ± SD, N = 2) ([1]; two-step EMA 25/10 μg/ml, Live cell): 18.5 ± 2.5 | Ct value (mean ± SD, N = 2) ([1]; two-step EMA 100/10 μg/ml, Injured cell): 27.3, ND^d,e | Ct value (mean ± SD, N = 2) ([1]; two-step EMA 100/10 μg/ml, Live cell): 22.9 ± 1.0 | bands of hlyA gene amplified products (electrophoresis, FIG. 1) ([2]; injured cells): few or no bands were detected | bands of hlyA gene amplified products (electrophoresis, FIG. 1) ([2]; live cells): bands were clearly detected | Band Intensity ([2]; multi-step: EMA 100 μg/ml + Incubation (30° C., 2 hr) + EMA 10 μg/ml, Injured cell): 0.094 | Band Intensity ([2]; multi-step: EMA 100 μg/ml + Incubation (30° C., 2 hr) + EMA 10 μg/ml, Live cell): 1.420 | Band Intensity ([2]; multi-step: EMA 100 μg/ml + Incubation (30° C., 2 hr) + EMA 25 μg/ml, Injured cell): 0.024 | Band Intensity ([2]; multi-step: EMA 100 μg/ml + Incubation (30° C., 2 hr) + EMA 25 μg/ml, Live cell): 1.135 | Band Intensity [2, 3]: 1.539 | Band Intensity [2, 4]: 1.141 | Band Intensity [2, 5]: 0.418 | Band Intensity [2, 6]: 0.479 | bands estimated as hlyA gene amplified products (electrophoresis, FIG. 1) ([2]; EMA 10 μg/ml): detected in both the live cells and injured cells | bands estimated as hlyA gene amplified products (electrophoresis, FIG. 1) ([2]; EMA 25 μg/ml): almost disappeared in both the live cells and injured cells
